Read-outs that look alike come from different tables or passages of the source.
What was measured:
[1] = molecular target: FGFR1 (Homo sapiens (Human), UniProt P11362); assay: FGFR biochemical assay (LanthaScreen TR-FRET kinase assay), FGFR1
Description: (§1) Convert Ratio values to percent inhibition values (Percent inhibition=(max−sample Ratio)/(max−min)*100) where “min” means the Ratio of no enzyme control and “max” means the Ratio of DMSO control. • Data are analyzed and curve fitting is performed by XLFit Excel add-in version 5.4.0.8. The IC50 calculation equation is: Y=Bottom+(Top-Bottom)/(1+ (IC50/X)^HillSlope.

[2] = molecular target: FGFR2 (Homo sapiens (Human), UniProt P21802); assay: FGFR biochemical assay (LanthaScreen TR-FRET kinase assay), FGFR2
Description: as §1

[3] = molecular target: FGFR3 (Homo sapiens (Human), UniProt P22607); assay: FGFR biochemical assay (LanthaScreen TR-FRET kinase assay), FGFR3
Sequence of FGFR3 (P22607 23-806): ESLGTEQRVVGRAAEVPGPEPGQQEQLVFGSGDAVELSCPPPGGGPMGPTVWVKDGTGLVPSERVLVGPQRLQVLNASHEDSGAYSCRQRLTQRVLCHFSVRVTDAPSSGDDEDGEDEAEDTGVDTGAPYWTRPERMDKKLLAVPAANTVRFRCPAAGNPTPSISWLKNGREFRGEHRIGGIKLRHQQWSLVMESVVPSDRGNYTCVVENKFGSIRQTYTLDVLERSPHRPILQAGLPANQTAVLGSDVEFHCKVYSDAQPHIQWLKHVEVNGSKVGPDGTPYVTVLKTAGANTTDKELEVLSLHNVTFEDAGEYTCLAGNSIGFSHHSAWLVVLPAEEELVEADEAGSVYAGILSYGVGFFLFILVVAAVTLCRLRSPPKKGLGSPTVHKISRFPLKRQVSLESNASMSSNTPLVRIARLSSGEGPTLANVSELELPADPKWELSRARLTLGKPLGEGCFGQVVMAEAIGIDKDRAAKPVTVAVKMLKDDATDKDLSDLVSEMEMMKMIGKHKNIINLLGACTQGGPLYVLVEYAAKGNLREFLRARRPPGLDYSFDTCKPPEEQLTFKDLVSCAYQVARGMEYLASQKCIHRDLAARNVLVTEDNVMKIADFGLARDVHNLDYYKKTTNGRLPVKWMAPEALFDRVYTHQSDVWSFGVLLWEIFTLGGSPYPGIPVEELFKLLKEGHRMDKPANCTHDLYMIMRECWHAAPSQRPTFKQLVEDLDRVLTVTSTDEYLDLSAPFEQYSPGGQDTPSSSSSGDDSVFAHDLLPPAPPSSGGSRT
Description: as §1

[4] = read-out: FGFR1 IC50, incubation with enzyme at room temperature for 10 minutes before substrate, ATP 28 μM, FGFR1 0.01 nM
[5] = read-out: FGFR2 IC50, incubation with enzyme at room temperature for 10 minutes before substrate, ATP 22 μM, FGFR2 0.01 nM
[6] = read-out: FGFR3 IC50, incubation with enzyme at room temperature for 10 minutes before substrate, ATP 35 μM, FGFR3 0.1 nM

Sequence of FGFR2 (P21802 22-821): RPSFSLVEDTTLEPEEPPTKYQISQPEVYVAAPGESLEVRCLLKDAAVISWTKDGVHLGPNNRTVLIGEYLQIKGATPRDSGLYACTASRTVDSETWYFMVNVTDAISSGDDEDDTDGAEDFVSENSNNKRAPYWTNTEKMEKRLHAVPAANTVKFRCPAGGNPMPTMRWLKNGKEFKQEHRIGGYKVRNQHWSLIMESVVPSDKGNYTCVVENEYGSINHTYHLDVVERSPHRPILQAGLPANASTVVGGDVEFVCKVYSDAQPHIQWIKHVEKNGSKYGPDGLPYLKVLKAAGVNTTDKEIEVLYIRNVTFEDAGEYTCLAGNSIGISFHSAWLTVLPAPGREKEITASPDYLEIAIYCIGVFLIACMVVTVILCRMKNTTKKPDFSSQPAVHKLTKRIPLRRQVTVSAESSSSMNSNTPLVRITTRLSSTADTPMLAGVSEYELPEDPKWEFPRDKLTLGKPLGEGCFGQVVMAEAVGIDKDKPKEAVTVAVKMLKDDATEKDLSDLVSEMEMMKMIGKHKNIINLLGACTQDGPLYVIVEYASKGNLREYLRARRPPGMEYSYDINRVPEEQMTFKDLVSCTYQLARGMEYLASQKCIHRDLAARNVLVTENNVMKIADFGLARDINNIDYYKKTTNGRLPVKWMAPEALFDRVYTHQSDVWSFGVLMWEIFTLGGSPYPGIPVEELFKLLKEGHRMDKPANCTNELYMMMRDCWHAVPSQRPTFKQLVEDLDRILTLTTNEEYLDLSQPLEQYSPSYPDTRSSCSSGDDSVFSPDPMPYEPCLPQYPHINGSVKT
Sequence of FGFR1 (P11362 22-822): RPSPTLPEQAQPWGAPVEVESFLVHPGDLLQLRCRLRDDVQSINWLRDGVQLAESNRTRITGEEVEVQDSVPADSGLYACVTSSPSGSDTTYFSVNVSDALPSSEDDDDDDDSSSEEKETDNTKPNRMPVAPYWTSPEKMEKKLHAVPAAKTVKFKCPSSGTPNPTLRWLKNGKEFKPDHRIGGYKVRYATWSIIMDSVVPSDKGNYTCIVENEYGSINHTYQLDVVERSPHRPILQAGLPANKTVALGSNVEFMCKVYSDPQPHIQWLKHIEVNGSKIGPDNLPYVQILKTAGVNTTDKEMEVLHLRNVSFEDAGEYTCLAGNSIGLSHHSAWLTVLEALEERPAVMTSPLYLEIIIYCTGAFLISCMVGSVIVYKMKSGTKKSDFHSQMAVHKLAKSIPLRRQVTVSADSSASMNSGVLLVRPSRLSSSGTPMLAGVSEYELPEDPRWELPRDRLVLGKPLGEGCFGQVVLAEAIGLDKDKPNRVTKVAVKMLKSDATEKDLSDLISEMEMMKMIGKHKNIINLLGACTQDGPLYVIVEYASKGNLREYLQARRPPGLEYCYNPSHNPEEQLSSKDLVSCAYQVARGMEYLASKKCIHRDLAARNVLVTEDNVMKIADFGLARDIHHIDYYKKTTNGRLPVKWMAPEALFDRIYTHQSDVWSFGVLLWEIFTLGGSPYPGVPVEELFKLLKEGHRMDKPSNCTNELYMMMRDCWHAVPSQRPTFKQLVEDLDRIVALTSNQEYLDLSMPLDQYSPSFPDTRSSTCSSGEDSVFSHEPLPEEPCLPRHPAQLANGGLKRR

C=CC(=O)Nc1ccc(-c2c(-c3ccc(Oc4cccc(C)n4)cc3)c(C(N)=O)c3cnccn23)cn1 [Example 3, 6-(6-acrylamidopyridin-3-yl)-7-(4-((6-methylpyridin-2-yl)oxy)phenyl)pyrrolo[1,2-a]pyrazine-8-carboxamide]
IC50 [1, 4]: < 0.01 µM | IC50 [2, 5]: < 0.01 µM | IC50 [3, 6]: < 0.01 µM

C=CC(=O)Nc1cc(C)c(-c2c(-c3ccc(Oc4cccc(C)n4)cc3)c(C(N)=O)c3cnccn23)cn1 [Example 4, 6-(6-acrylamido-4-methylpyridin-3-yl)-7-(4-((6-methylpyridin-2-yl)oxy)phenyl)pyrrolo[1,2-a]pyrazine-8-carboxamide]
IC50 [1]: 0.01 to 0.1 µM | IC50 [2]: 0.01 to 0.1 µM | IC50 [3]: 0.01 to 0.1 µM

Cc1cn2c(-c3ccc(NC(=O)/C=C/CN(C)C)cc3)c(-c3ccc(Oc4cccc(C)n4)cc3)c(C(N)=O)c2cn1 [Example 9, (E)-6-(4-(4-(dimethylamino)but-2-enamido)phenyl)-3-methyl-7-(4-((6-methylpyridin-2-yl)oxy)phenyl)pyrrolo[1,2-a]pyrazine-8-carboxamide]
IC50 [1]: 0.1 to 1 µM | IC50 [2, 5]: < 0.01 µM | IC50 [3]: 0.01 to 0.1 µM

Cc1cn2c(-c3ccc(NC(=O)/C=C/CN(C)C)nc3)c(-c3ccc(Oc4cccc(C)n4)cc3)c(C(N)=O)c2cn1 [Example 10, (E)-6-(6-(4-(dimethylamino)but-2-enamido)pyridin-3-yl)-3-methyl-7-(4-((6-methylpyridin-2-yl)oxy)phenyl)pyrrolo[1,2-a]pyrazine-8-carboxamide]
IC50 [1]: 0.01 to 0.1 µM | IC50 [2, 5]: < 0.01 µM | IC50 [3]: 0.01 to 0.1 µM

C=CC(=O)N1CCc2cc(-c3c(-c4ccc(Oc5cccc(C)n5)cc4)c(C(N)=O)c4cnccn34)ccc21 [Example 14, 6-(1-acryloylindolin-5-yl)-7-(4-((6-methylpyridin-2-yl)oxy)phenyl)pyrrolo[1,2-a]pyrazine-8-carboxamide]
IC50 [1, 4]: < 0.01 µM | IC50 [2, 5]: < 0.01 µM | IC50 [3, 6]: < 0.01 µM

C=CC(=O)Nc1ccc(-c2c(-c3ccc(Oc4cccc(C)n4)cc3)c(C(N)=O)c3ccncn23)cc1 [Example 15, 7-(4-acrylamidophenyl)-6-(4-((6-methylpyridin-2-yl)oxy)phenyl)pyrrolo[1,2-c]pyrimidine-5-carboxamide]
IC50 [1]: 0.1 to 1 µM | IC50 [2, 5]: < 0.01 µM | IC50 [3]: 0.01 to 0.1 µM

C=CC(=O)Nc1ccc(-c2c(-c3ccc(Oc4cccc(C)n4)cc3)c(C(N)=O)c3cnc(OC)cn23)cc1 [Example 17, 6-(4-acrylamidophenyl)-3-methoxy-7-(4-((6-methylpyridin-2-yl)oxy)phenyl)pyrrolo[1,2-a]pyrazine-8-carboxamide]
IC50 [1]: 0.01 to 0.1 µM | IC50 [2, 5]: < 0.01 µM | IC50 [3]: 0.01 to 0.1 µM

C=CC(=O)Nc1ccc(-c2c(-c3ccc(Oc4cccc(C)n4)cc3)c(C(N)=O)c3cnc(S(=O)(=O)NC)cn23)cc1 [Example 18, 6-(4-acrylamidophenyl)-7-(4-((6-methylpyridin-2-yl)oxy)phenyl)-3-(N-methylsulfamoyl)pyrrolo[1,2-a]pyrazine-8-carboxamide]
IC50 [1]: 0.1 to 1 µM | IC50 [2, 5]: < 0.01 µM | IC50 [3]: 0.01 to 0.1 µM

C=CC(=O)Nc1ccc(-c2c(-c3ccc(Oc4nc(C)cs4)cc3)c(C(N)=O)c3cnccn23)cc1 [Example 19, 6-(4-acrylamidophenyl)-7-(4-((4-methylthiazol-2-yl)oxy)phenyl)pyrrolo[1,2-a]pyrazine-8-carboxamide]
IC50 [1]: 0.01 to 0.1 µM | IC50 [2, 5]: < 0.01 µM | IC50 [3]: 0.01 to 0.1 µM

C=CC(=O)Nc1ccc(-c2c(-c3ccc(Oc4cccc(C)n4)cc3)c(C(N)=O)c3cccnn23)cc1 [Example 20, 7-(4-acrylamidophenyl)-6-(4-((6-methylpyridin-2-yl)oxy)phenyl)pyrrolo[1,2-b]pyridazine-5-carboxamide]
IC50 [1]: 0.01 to 0.1 µM | IC50 [2, 5]: < 0.01 µM | IC50 [3]: 0.01 to 0.1 µM

C=CC(=O)Nc1ccc(-c2c(-c3ccc(Oc4cccc(C)n4)cc3)c(C(N)=O)c3cnc(C4CN(C)C4)cn23)cc1 [Example 21, 6-(4-acrylamidophenyl)-3-(1-methylazetidin-3-yl)-7-(4-((6-methylpyridin-2-yl)oxy)phenyl)pyrrolo[1,2-a]pyrazine-8-carboxamide]
IC50 [1]: 0.1 to 1 µM | IC50 [2, 5]: < 0.01 µM | IC50 [3]: 0.01 to 0.1 µM

C=CC(=O)Nc1ccc(-c2c(-c3ccc(OC)cc3)c(C(N)=O)c3cnccn23)cc1 [Example 22, 6-(4-acrylamidophenyl)-7-(4-methoxyphenyl)pyrrolo[1,2-a]pyrazine-8-carboxamide]
IC50 [1]: 0.1 to 1 µM | IC50 [2]: 0.01 to 0.1 µM | IC50 [3]: 0.1 to 1 µM

C=CC(=O)Nc1ccc(-c2c(-c3ccc(Oc4cccc(C)n4)cc3)c(C#N)c3sccn23)cc1 [Example 24, N-(4-(7-cyano-6-(4-((6-methylpyridin-2-yl)oxy)phenyl)pyrrolo[2,1-b]thiazol-5-yl)phenyl) acrylamide]
IC50 [1, 4]: > 1 µM | IC50 [2, 5]: > 1 µM | IC50 [3, 6]: > 1 µM

C=CC(=O)Nc1ccc(-c2c(-c3ccc(Oc4cccc(C)n4)c(OC)c3)c(C(N)=O)c3cnccn23)cc1 [Example 25, 6-(4-acrylamidophenyl)-7-(3-methoxy-4-((6-methylpyridin-2-yl)oxy)phenyl)pyrrolo[1,2-a]pyrazine-8-carboxamide]
IC50 [1]: 0.1 to 1 µM | IC50 [2, 5]: < 0.01 µM | IC50 [3]: 0.01 to 0.1 µM

C=CC(=O)Nc1ccc(-c2c(-c3ccc(Oc4ccccn4)cc3)c(C(N)=O)c3cnccn23)cc1 [Example 26, 6-(4-acrylamidophenyl)-7-(4-(pyridin-2-yloxy)phenyl)pyrrolo[1,2-a]pyrazine-8-carboxamide]
IC50 [1]: 0.1 to 1 µM | IC50 [2, 5]: < 0.01 µM | IC50 [3]: 0.01 to 0.1 µM

C=CC(=O)Nc1ccc(-c2c(-c3ccc(S(=O)(=O)C4CC4)cc3)c(C(N)=O)c3cnccn23)cc1 [Example 27, 6-(4-acrylamidophenyl)-7-(4-(cyclopropylsulfonyl)phenyl)pyrrolo[1,2-a]pyrazine-8-carboxamide]
IC50 [1, 4]: > 1 µM | IC50 [2]: 0.1 to 1 µM | IC50 [3]: 0.1 to 1 µM

C=CC(=O)Nc1ccc(-c2c(-c3ccc(OC4CCCC4)cc3)c(C(N)=O)c3cnccn23)cc1 [Example 28, 6-(4-acrylamidophenyl)-7-(4-(cyclopentyloxy)phenyl)pyrrolo[1,2-a]pyrazine-8-carboxamide]
IC50 [1]: 0.1 to 1 µM | IC50 [2, 5]: < 0.01 µM | IC50 [3, 6]: < 0.01 µM

C=CC(=O)Nc1ccc(-c2c(-c3ccc(Oc4cccc(C)n4)cc3)c(C(N)=O)c3cnc(CN(C)C)cn23)cc1 [Example 29, 6-(4-acrylamidophenyl)-3-((dimethylamino)methyl)-7-(4-((6-methylpyridin-2-yl)oxy)phenyl)pyrrolo[1,2-a]pyrazine-8-carboxamide]
IC50 [1, 4]: > 1 µM | IC50 [2]: 0.01 to 0.1 µM | IC50 [3]: 0.1 to 1 µM

C=CC(=O)Nc1ccc(-c2c(-c3ccc(C(=O)N4CC5(CCC5)C4)cc3)c(C(N)=O)c3cnccn23)cc1 [Example 30, 7-(4-(2-azaspiro[3.3]heptane-2-carbonyl)phenyl)-6-(4-acrylamidophenyl)pyrrolo[1,2-a]pyrazine-8-carboxamide]
IC50 [1]: 0.1 to 1 µM | IC50 [2]: 0.01 to 0.1 µM | IC50 [3]: 0.1 to 1 µM

C=CC(=O)Nc1ccc(-c2c(-c3ccc(Oc4cccc(C)n4)c(F)c3)c(C(N)=O)c3cnccn23)cc1 [Example 32, 6-(4-acrylamidophenyl)-7-(3-fluoro-4-((6-methylpyridin-2-yl)oxy)phenyl)pyrrolo[1,2-a]pyrazine-8-carboxamide]
IC50 [1]: 0.01 to 0.1 µM | IC50 [2, 5]: < 0.01 µM | IC50 [3, 6]: < 0.01 µM

C=CC(=O)Nc1ccc(-c2c(-c3ccc(Oc4nccc(C)n4)c(F)c3)c(C(N)=O)c3cnccn23)cc1 [Example 33, 6-(4-acrylamidophenyl)-7-(3-fluoro-4-((4-methylpyrimidin-2-yl)oxy)phenyl)pyrrolo[1,2-a]pyrazine-8-carboxamide]
IC50 [1]: 0.01 to 0.1 µM | IC50 [2, 5]: < 0.01 µM | IC50 [3]: 0.01 to 0.1 µM

C=C(C)C(=O)Nc1ccc(-c2c(-c3ccc(Oc4nccc(C)n4)c(F)c3)c(C(N)=O)c3cnccn23)cc1 [Example 34, 7-(3-fluoro-4-((4-methylpyrimidin-2-yl)oxy)phenyl)-6-(4-methacrylamidophenyl)pyrrolo[1,2-a]pyrazine-8-carboxamide]
IC50 [1, 4]: > 1 µM | IC50 [2]: 0.1 to 1 µM | IC50 [3]: 0.1 to 1 µM

C=CC(=O)Nc1ccc(-c2c(-c3ccc(Oc4nccc(C)n4)c(F)c3)c(C(N)=O)c3cnc(C)cn23)cc1 [Example 35, 6-(4-acrylamidophenyl)-7-(3-fluoro-4-((4-methylpyrimidin-2-yl)oxy)phenyl)-3-methylpyrrolo[1,2-a]pyrazine-8-carboxamide]
IC50 [1]: 0.01 to 0.1 µM | IC50 [2, 5]: < 0.01 µM | IC50 [3, 6]: < 0.01 µM

C=CC(=O)Nc1ccc(-c2c(-c3ccc(Oc4nccc(C)n4)c(F)c3)c(C(N)=O)c3cnc(C)cn23)cn1 [Example 36, 6-(6-acrylamidopyridin-3-yl)-7-(3-fluoro-4-((4-methylpyrimidin-2-yl)oxy)phenyl)-3-methylpyrrolo[1,2-a]pyrazine-8-carboxamide]
IC50 [1]: 0.01 to 0.1 µM | IC50 [2, 5]: < 0.01 µM | IC50 [3, 6]: < 0.01 µM

C=CC(=O)Nc1ccc(-c2c(-c3ccc(Oc4nccc(C)n4)c(F)c3)c(C(N)=O)c3cnc(C)cn23)cc1C [Example 37, 6-(4-acrylamido-3-methylphenyl)-7-(3-fluoro-4-((4-methylpyrimidin-2-yl)oxy)phenyl)-3-methylpyrrolo[1,2-a]pyrazine-8-carboxamide]
IC50 [1, 4]: > 1 µM | IC50 [2]: 0.01 to 0.1 µM | IC50 [3]: 0.1 to 1 µM

C=C(F)C(=O)Nc1ccc(-c2c(-c3ccc(Oc4nccc(C)n4)c(F)c3)c(C(N)=O)c3ccccn23)cc1 [Example 107, 2-(3-fluoro-4-((4-methylpyrimidin-2-yl)oxy)phenyl)-3-(4-(2-fluoroacrylamido)phenyl) indolizine-1-carboxamide]
IC50 [1]: 0.1 to 1 µM | IC50 [3]: 0.01 to 0.1 µM
